Test results: patent US5491216A, “Tri-arginine insulins” (Eli Lilly and Company, priority 1993, dated 1996)

Columns and labels:
[1] = test system: New Zealand White rabbits; experiment: Hypoglycemic activity after subcutaneous injection in fasted rabbits (blood glucose, percent of original); format: in vivo, rabbit; details: for Percent of Original Blood Glucose: added zinc 0 mg/ml, 0.2 U/kg s.c., 40 U/ml, n = 10 rabbits
Method: Solutions were prepared containing various amounts of zinc (0-2.4 mg/ml) in the form of zinc chloride. Glacial acetic acid was used to solublize each of the solutions at a final pH range of pH 4-6.
New Zealand White rabbits, mostly female, all weighing 0 2.7-4 kg, 0.5-4 years of age and fasted 16 hours prior to administration of sample were used for testing.
At various times, 100 μl volumes of blood were obtained from the marginal ear veins, mixed with 900 μl volumes of anticoagulant (EDTA-sodium fluoride) and analyzed for glucose content. The glucose values were standardized to reflect percent of original blood glucose measured prior to sample injection.

[2] = standardized value used in the formula for test solutions; cited from earlier work

Substance	Percent of Original Blood Glucose ([1]; 1 hour after injection)	Percent of Original Blood Glucose ([1]; 2 hours after injection)	Percent of Original Blood Glucose ([1]; 4 hours after injection)	Percent of Original Blood Glucose ([1]; 6 hours after injection)	hypoglycemic activity ([1]; result in words, animal model)	standardized value (potency per mg protein) [2]
Des(64) HPI: split(64) proinsulin wherein Lys-64 is removed	63.1%	70.5%	90.6%	90.0%	hypoglycemic activity of its own	–
human insulin: natural human insulin, reference for biopotency	–	–	–	–	–	28.85 U/mg
